Common to all, as to format: cell-based
Assay [1] deals with Staphylococcus aureus ATCC 6538. Put plainly: AOAC Official Method 961.02 Germicidal Spray Method, bacteria on glass carriers. Particulars: for killing Staphylococcus aureus: 1.0% QAH; for Staphylococcus aureus Growth Rate: 10 min contact. The source says:
(§1) In this method, a series of glass slides (“carriers”) were inoculated with a representative test organism and the carriers were dried under ambient conditions. The dried organisms on the surface of the carrier were then sequentially treated with the composition of the present disclosure in the form of a spray product and were exposed for a pre-determined exposure time. After exposure, the carriers were sequentially transferred to a liquid subculture medium specifically selected to neutralize the composition of the present disclosure and to recover any surviving test organism. The carriers were incubated and visually examined for the presence or absence of growth. […] Required organisms for a disinfection claim include but are not limited to Staphylococcus aureus, Salmonella choleraesuis and Pseudomonas aeruginosa.
(§2) Method Adapted to the Preparation of Bacteria Cultures from −80° C. Freshly Recovered Stock. […] Added 10 μL of the thawed stock to a tube containing 10 mL synthetic broth and then vortexed to mix. Discarded the rest of cryovial stock. • Incubated the tube at 36 ±1° C. for 24 hours (h). Briefly vortexed the 24 h culture prior to transfer. For this final subculture step, inoculated two 20×150 mm tubes containing 10 mL synthetic broth with […] of the 24 h synthetic broth culture. • Incubated 48 h at 36±1° C. Using a Vortex-style mixer, mixed synthetic broth test cultures 3-4 seconds and let stand 10 minutes at room temperature before continuing. Removed the upper portion of each culture, leaving behind any debris or clumps, and transferred to a sterile tube. Titrated the culture by plating on synthetic agar plates, and diluted to 5×10^8 Colony Forming Units (CFU) per mL.
(§3) High volume screening studies were conducted in some cases where only 4 organism-inoculated carriers were treated at specified concentrations of CTAB. Vortex-mixed the inoculum periodically during inoculation of the carriers. • Immediately spread the inoculum uniformly over the majority of the carrier surface using a sterile loop. […] Covered dish immediately and repeated operation until 64 carriers had been prepared for the test. Once all of the carriers had been inoculated, placed in incubator at 37° C. for 40 minutes until dry.
(§4) • After the test organisms were dried on the surface of the carrier, each carrier was sprayed with the respective disinfection formulae 10 times in 10 seconds at a distance of 30 cm. • Treatment interval was timed. Ten (10) minutes after each carrier had been sprayed by the disinfectant, the excess liquid was removed and the carriers were transferred in a sequentially timed fashion into the culture tubes containing 20 ml neutralizer (Letheen Broth with 0.07% Lecithin/0.5% Tween 80/0.1% Sodium Thiosulfate) to neutralize the disinfectant. […] The percentage of the treated carriers showing growth after 48 hours was recorded.

In assay [2] the test system is Pseudomonas aeruginosa ATCC 15442. The description is as above. The conditions noted are these: 10 min contact.
From the text: as §1, §2, §3, §4

Assay [3] relates to Trichophyton mentagrophytes ATCC 9533. Put plainly: AOAC Official Method 961.02 Germicidal Spray Method, fungal conidia on glass carriers. The conditions noted are these: 10 min contact.
From the text: as §1
(§5) The conidiospore suspension was macerated in a tissue grinder. The suspension was filtered through sterile cotton to remove the hyphae and hyphal fragments.
(§6) Vortex-mixed the inoculum periodically during inoculation of the carriers. • Immediately spread the inoculum uniformly over the majority of the carrier surface using a sterile loop. […] High volume screening studies were conducted in some cases where only 4 organism-inoculated carriers were treated at specified concentrations of CTAB. Once all of the carriers had been inoculated, the carriers were placed in an incubator at 37° C. for 40 minutes until completely dry.
(§7) • After drying, each carrier was sprayed with the respective disinfection formulae 10 times in 10 seconds at a distance of 30 cm. • Timed the treatment interval. Ten (10) minutes after each carrier had been exposed to the disinfectant, the excess liquid was removed and the carriers were transferred in a sequentially timed fashion into the culture tubes containing 20 ml neutralization broth (Letheen Broth with 0.07% Lecithin /0.5% Tween 80) to neutralize the disinfectant. • After the carriers were deposited in the respective culture tubes, the tubes were recapped and the cultures were thoroughly resuspended. • Incubated all neutralization tubes at 28 ±1° C. for 14 days. • After 14 days, the cultures within the tubes were examined for growth. The percentage of the treated carriers showing growth was recorded.

The test system of assay [4] is Aspergillus niger ATCC 6275. The assay is described as above. The conditions noted are these: 10 min contact.
From the text: as §1, §5, §6, §7

Assay [5] relates to Penicillium variable ATCC 32333. The assay is described as above. The conditions noted are these: 10 min contact.
From the text: as §1, §5, §6, §7

Assay [6] deals with select bacteria and fungal organisms. Put plainly: Germicidal spray disinfection, summary over the tested organisms. The conditions noted are these: 0.01% QAH in CMC; 10-minute contact time. As to the method:
All experiments were conducted according to the protocol outlined in AOAC Official Method 961.02 (Germicidal Spray Method), which is a carrier-based method used to evaluate disinfection efficacy of aerosol/pump-based spray products and liquid products for registration with regulatory agencies such as the U.S. EPA and Health Canada.
It was expected that if the CTAB was replaced by QAH's of similar structure that the disinfection of selected bacteria and fungal organisms would be similarly achieved. […] In the case of bacteria testing, the experimental procedure was as outlined in Example 1 for disinfection of bacterial cultures. In the case of fungal organisms, the experimental procedure was as outlined in Example 1 for the preparation of fungal cultures.

Here are results for five compounds from patent publication US20200245616A1, “A Disinfectant Composition with Extended Antimicrobial Effects” (Siamons International Inc., priority 2017, published 2020).

Regarding `CCCC[N+](CCCC)(CCCC)Cc1ccccc1.[Cl-]` [BTBAC, Benzyltri-n-butylammonium chloride], in assay [1], the “killing Staphylococcus aureus” value is recorded as “incapable of killing”. For the same compound, the “Staphylococcus aureus Growth Rate” value in assay [1] (CMC + QAH, QAH 0.010%) was 100%; in assay [1] (CMC + QAH, QAH 0.100%) it was 100%; in assay [1] (CMC + QAH, QAH 1.000%) it was 100%; in assay [1] (Water + QAH, QAH 0.010%) it was 100%; in assay [1] (Water + QAH, QAH 0.100%), 100%; in assay [1] (Water + QAH, QAH 1.000%) it was 100%.

Regarding “Alkyldimethylbenzylammonium chloride [ADBAC]”, the “Pseudomonas aeruginosa Growth Rate” value in assay [2] (CMC + QAH, QAH 0.010%) was 0%; in assay [2] (CMC + QAH, QAH 0.100%), 0%; in assay [2] (CMC + QAH, QAH 1.000%), 0%; in assay [2] (Water + QAH, QAH 0.010%), 0%; in assay [2] (Water + QAH, QAH 0.100%) it was 0%; in assay [2] (Water + QAH, QAH 1.000%), 0%. Moreover, the “Trichophyton mentagrophytes Growth Rate” value stood at 0% in assay [3] (CMC + QAH, QAH 0.010%); 0% in assay [3] (CMC + QAH, QAH 0.100%); 0% in assay [3] (CMC + QAH, QAH 1.000%); 0% in assay [3] (Water + QAH, QAH 0.010%); 0% in assay [3] (Water + QAH, QAH 0.100%); 0% in assay [3] (Water + QAH, QAH 1.000%). For the same compound, the “Aspergillus niger Growth Rate” value was 100% in assay [4] (CMC + QAH, QAH 0.010%); 0% in assay [4] (CMC + QAH, QAH 0.100%); 0% in assay [4] (CMC + QAH, QAH 1.000%); 100% in assay [4] (Water + QAH, QAH 0.010%); 100% in assay [4] (Water + QAH, QAH 0.100%); 0% in assay [4] (Water + QAH, QAH 1.000%). In addition, the “Penicillium variable Growth Rate” value in assay [5] (CMC + QAH, QAH 0.010%) is reported as 0%; in assay [5] (CMC + QAH, QAH 0.100%), 0%; in assay [5] (CMC + QAH, QAH 1.000%) it was 0%; in assay [5] (Water + QAH, QAH 0.010%), 0%; in assay [5] (Water + QAH, QAH 0.100%), 0%; in assay [5] (Water + QAH, QAH 1.000%), 0%. In addition, the “effectiveness against the target organisms” value (shortened to “effectiveness”) in assay [6] is on record as “remarkable effectiveness”.

For `CCCCCCCCCCCCCCCCCC[N+](C)(C)C.[Cl-]` [TMSAC, Trimethylstearylammonium chloride], the “Pseudomonas aeruginosa Growth Rate” value came to 0% in assay [2] (CMC + QAH, QAH 0.010%); 0% in assay [2] (CMC + QAH, QAH 0.100%); 0% in assay [2] (CMC + QAH, QAH 1.000%); 100% in assay [2] (Water + QAH, QAH 0.010%); 50% in assay [2] (Water + QAH, QAH 0.100%); 0% in assay [2] (Water + QAH, QAH 1.000%). In addition, the “Staphylococcus aureus Growth Rate” value came to 0% in assay [1] (CMC + QAH, QAH 0.010%); 0% in assay [1] (CMC + QAH, QAH 0.100%); 0% in assay [1] (CMC + QAH, QAH 1.000%); 100% in assay [1] (Water + QAH, QAH 0.010%); 100% in assay [1] (Water + QAH, QAH 0.100%); 50% in assay [1] (Water + QAH, QAH 1.000%). The “Trichophyton mentagrophytes Growth Rate” value in assay [3] (CMC + QAH, QAH 0.010%) is listed as 0%; in assay [3] (CMC + QAH, QAH 0.100%), 0%; in assay [3] (CMC + QAH, QAH 1.000%), 0%; in assay [3] (Water + QAH, QAH 0.010%), 0%; in assay [3] (Water + QAH, QAH 0.100%), 0%; in assay [3] (Water + QAH, QAH 1.000%), 0%. Also, the “Penicillium variable Growth Rate” value came to 0% in assay [5] (CMC + QAH, QAH 0.010%); 0% in assay [5] (CMC + QAH, QAH 0.100%); 0% in assay [5] (CMC + QAH, QAH 1.000%); 0% in assay [5] (Water + QAH, QAH 0.010%); 0% in assay [5] (Water + QAH, QAH 0.100%); 0% in assay [5] (Water + QAH, QAH 1.000%). In addition, the “effectiveness” value in assay [6] is reported as “remarkable effectiveness”.

Consider `CC[N+](CC)(CC)Cc1ccccc1.[Cl-]` [BTEAC, Benzyltriethylammonium chloride], for which the “killing Staphylococcus aureus” value in assay [1] was “incapable of killing”. Moreover, the “Staphylococcus aureus Growth Rate” value came to 100% in assay [1] (CMC + QAH, QAH 0.010%); 100% in assay [1] (CMC + QAH, QAH 0.100%); 75% in assay [1] (CMC + QAH, QAH 1.000%); 100% in assay [1] (Water + QAH, QAH 0.010%); 100% in assay [1] (Water + QAH, QAH 0.100%); 100% in assay [1] (Water + QAH, QAH 1.000%).

`CC(C)(C)CC(C)(C)c1ccc(OCCOCC[N+](C)(C)Cc2ccccc2)cc1` [BZT, Benzethonium chloride]: the “Pseudomonas aeruginosa Growth Rate” value turned out to be 0% in assay [2] (CMC + QAH, QAH 0.010%); 0% in assay [2] (CMC + QAH, QAH 0.100%); 0% in assay [2] (CMC + QAH, QAH 1.000%); 100% in assay [2] (Water + QAH, QAH 0.010%); 100% in assay [2] (Water + QAH, QAH 0.100%); 100% in assay [2] (Water + QAH, QAH 1.000%). Besides, the “Staphylococcus aureus Growth Rate” value in assay [1] (CMC + QAH, QAH 0.010%) worked out at 0%; in assay [1] (CMC + QAH, QAH 0.100%) it was 0%; in assay [1] (CMC + QAH, QAH 1.000%), 100%; in assay [1] (Water + QAH, QAH 0.010%), 100%; in assay [1] (Water + QAH, QAH 0.100%) it was 25%; in assay [1] (Water + QAH, QAH 1.000%), 0%. The “Trichophyton mentagrophytes Growth Rate” value stood at 0% in assay [3] (CMC + QAH, QAH 0.010%); 0% in assay [3] (CMC + QAH, QAH 0.100%); 0% in assay [3] (CMC + QAH, QAH 1.000%); 0% in assay [3] (Water + QAH, QAH 0.010%); 0% in assay [3] (Water + QAH, QAH 0.100%); 0% in assay [3] (Water + QAH, QAH 1.000%). Further, the “Aspergillus niger Growth Rate” value in assay [4] (CMC + QAH, QAH 0.010%) stood at 50%; in assay [4] (CMC + QAH, QAH 0.100%) it was 0%; in assay [4] (CMC + QAH, QAH 1.000%) it was 0%. The “Penicillium variable Growth Rate” value in assay [5] (CMC + QAH, QAH 0.010%) worked out at 0%; in assay [5] (CMC + QAH, QAH 0.100%), 0%; in assay [5] (CMC + QAH, QAH 1.000%) it was 0%; in assay [5] (Water + QAH, QAH 0.010%), 0%; in assay [5] (Water + QAH, QAH 0.100%) it was 0%; in assay [5] (Water + QAH, QAH 1.000%) it was 0%. In assay [6], the “effectiveness” value is listed as “remarkable effectiveness”.
